Measurements reported in patent US10780174B2, “Lipid-linked prodrugs” (The University of British Columbia, priority 2015, dated 2020).

How the values were obtained:
[1] = In vitro degradation of lipid-linked prodrugs in LNP, mouse plasma; type: in vitro ADME; conditions: LNP; for prodrug cleavage/degradation after 1 h in plasma: 37° C., mouse plasma
Description: (§1) Quantitation of prodrugs by HPLC: LD-DEX/DTX were quantified by ultra high-pressure liquid chromatography (UHPLC) using a Waters Acquity™ UPLC system equipped with a photodiode array detector (PDA) and evaporative light scattering (ELS) detector; Empower™ data acquisition software version 3.0 was used (Waters™, USA). Separations were performed using a Waters Acquity™ BEH C18 column (1.7 μm, 2.1×100 mm) at a flow rate of 0.5 ml/min, with mobile phases A and B consisting of methanol/10 mM ammonium bicarbonate (80/20% v/v) and methanol/acetonitrile (80/20% v/v), respectively. The mobile phases were delivered at a programmed linear gradient (45%-80% B in 1 min then to 99% B at 2 min) at a column temperature of 55° C. The analyte was measured by PDA (at a wavelength of 239 nm) and ELS detector against calibration standard curves. For the analysis of LD-DEX/DTX breakdown to active compound, linear gradients of 20/80% to 100/0% (acetonitrile/water, v/v) over 7 min were used.
To determine the biodegradability of the dexamethasone or docetaxel prodrugs (LD-DEX/DTX), 1 mg/mL LNP was incubated in mouse plasma (Cedarlane™, Burlington, Ontario) or PBS supplemented with 10 U of purified esterase (Sigma-Aldrich™, St. […] Post incubation, four volumes of chloroform/methanol (2:1) was added and the mixture was vortex mixed. Samples were centrifuged at 13,000 g for 5 minutes and the upper phase was discarded. The remaining organic phase was dried down under vacuum and the resulting lipid extract was dissolved in methanol/acetonitrile (1:1). Quantity of parent LD-DEX/DTX compound was determined by ultra high pressure liquid chromatography on a Waters Acquity™ H-Class UPLC System™ equipped with a BEH C18 column and a photodiode array detector.

[2] = In vitro dissociation of lipid-linked prodrugs from LNP in human plasma; type: in vitro ADME; conditions: human plasma over 24 h, 37° C., PC-Chol LNP or ionizable LNP
Description: LNP were incubated for 0, 3, 5 and 24 h at 37° C. in 400 μL of sterile human plasma (Cedarlane™, Burlington, Ontario) at a final lipid concentration of 1.2 mM. At the various time-points, samples were loaded onto a 1.5×27 cm Sepharose CL-4B column (Sigma-Aldrich™, St. Louis, Mo.). 30×2 mL fractions were collected. Three volumes of methanol/acetonitrile (1:1) were added to each fraction and analyzed by UHPLC to determine the residual LD-DEX/DTX as described above.

OVCAR3 cells = experiment: In vitro growth inhibition by LD-DTX prodrugs, cell viability assay; type: cell-based; conditions: Homo sapiens, OVCAR-3, 48 h, Ovcar3 cells
Description: OVCAR3 cells were obtained from ATCC (Manassas, Va.). Cells were seeded at 12,000 cells per well on 96-well plates and treated with free docetaxel, prodrugs, lipid nanoparticle formulations with or without prodrugs at 0 to 15 μM of docetaxel for 48 h. Cell viability was determined by a colorimetric assay, based on the tetrazolium salt MIT (3-(4,5-dimethylthiazol-2-yl)-2,5-diphenyltetrazolium bromide), as described previously [Mossman 1983].

[3] = tested on: purified porcine esterase; experiment: In vitro degradation of lipid-linked prodrugs in LNP, purified esterase in PBS; conditions: LNP, 24 h incubation
[4] = Particle size and polydispersity of LNP containing prodrug (dynamic light scattering); type: physicochemical; conditions: PDI in brackets; for Particle size (PDI) PC-Chol LNP: LD-DEX prodrug in PC-Chol LNP; for Particle size (PDI) [ionizable LNP]: LD-DEX prodrug in ionizable LNP
Description: (§2) Preparation of LNP Systems: PC-Chol LNP systems were prepared by rapidly mixing POPC, cholesterol, lipid-linked prodrug and PEG-DMPE (in molar ratio of 49/39/10/2) dissolved in ethanol with phosphate-buffered saline using a T-junction mixer. Formulations were dialyzed against phosphate-buffered saline to remove residual ethanol and to raise the pH to 7.4. PC-TO and ionizable LNP systems were prepared in the same way except that the lipid compositions for these systems are: POPC, triolein, lipid-linked prodrug and PEG-DSPE (in molar ration of 19/70/10/1), and ionizable lipid, DSPC, cholesterol, lipid-linked prodrug and PEG-DMPE (in molar ration of 40/10/38.5/10/1.5), respectively.
Characterization of LNP: Particle size was determined by dynamic light scattering using a Malvern Zetasizer Nano ZS™ (Malvern, UK) following buffer exchange into phosphate-buffered saline. Number-weighted size and distribution data was used. Lipid concentrations were determined by measuring total cholesterol using the Cholesterol E enzymatic assay kit from Wako Chemicals USA™ (Richmond, Va.). The morphology of LNP formulations containing LD-DEX was analyzed by cryogenic-transmission electron microscopy (cryoTEM) as described previously [Leung et al. (2012)].

[5] = Prodrug incorporation (entrapment) in lipid nanoparticles, UHPLC; type: physicochemical; conditions: for % Entrapment PC-Chol LNP: LD-DEX prodrug in PC-Chol LNP; for % Entrapment [ionizable LNP]: LD-DEX prodrug in ionizable LNP
Description: as §2, §1

[6] = tested on: immunostimulatory effects of LNP-CpG (plasma cytokines); experiment: In vivo immune suppression by LD-DEX prodrugs, LNP-CpG model; set-up: species or system C57Bl/6 mice; conditions: mice, i.v., 10 mg/kg of CpG, 2 h post injection
Description: 6-8 Weeks old female C57Bl/6 mice (Charles River Laboratories™, Wilmington, Mass.) were injected intravenously with lipid nanoparticles containing CpG DNA oligonucleotides (10 mg/kg), mRNA (3 mg/kg) or plasmid DNA (pDNA) (1 mg/kg). Animals were euthanized 2 hours post-injection and blood was collected via intracardiac or saphenous sampling. Plasma was separated from whole blood by centrifugation and analyzed for proinflammatory cytokines using the Mesoscale Proinflammatory Multiplex™ kit (Rockville, Md.) according to manufacturer's instruction. All procedures were approved by the Animal Care Committee at the University of British Columbia and were performed in accordance with guidelines established by the Canadian Council on Animal Care.

[7] = tested on: IL1β expression in RAW 264.7 mouse macrophage cells; experiment: In vitro immune suppression, LPS-treated RAW 264.7 cells, IL1β qRT-PCR; type: cell-based; conditions: 2 ng/mL LPS, 4 h
Description: RAW 264.7 mouse macrophage cells were seeded at 250,000 cells per mL on 12-well plates and incubated at 37° C. overnight. Lipopolysaccharide (LPS) was dissolved in phosphate buffered saline at a concentration of 2 μg/ml. Cells were treated with lipid nanoparticles containing LD-DEX prodrugs and 2 ng/ml of LPS for 4 hours. This LPS concentration was chosen due to its ability to increase IL1β expression approximately 1000 times as compared to untreated cells. At the end of the incubation period, culture medium was aspirated and cellular RNA was extracted using the Purelink RNA™ extraction kit according to manufacturer's protocol (Life Technologies™, Burlington, ON). The concentration of extracted RNA was determined using a Nanodrop Lite™ (Thermo Fisher™). 1 μg of RNA was converted to cDNA using the High Capacity cDNA Reverse Transcription kit (Life Technologies™, Burlington, ON). In order to validate the sample preparation, a no template control and a negative reverse transcriptase control were included. The cDNA was then quantified using comparative real-time qPCR where the Ct (threshold cycle) values are converted to relative quantity using the 2-ΔΔCT method. The primer-probe sets were designed to bind to cDNA of Interleukin-1β(IL1β). Hypoxanthine-guanine phosphoribosyltransferase (HPRT) was chosen as the endogenous normalizer gene, which is known to maintain consistent levels with varying treatments.

In the case of `CCCCCCCC/C=C\CCCCCCCCOC(=O)CCC(=O)O[C@@H](C(=O)O[C@H]1C[C@@]2(O)[C@@H](OC(=O)c3ccccc3)[C@@H]3[C@]4(OC(C)=O)CO[C@@H]4C[C@H](O)[C@@]3(C)C(=O)[C@H](O)C(=C1C)C2(C)C)[C@@H](NC(=O)OC(C)(C)C)c1ccccc1` [LD18-DTX, (2R,3S)-1-(((2aR,4S,4aS,6R,9S,11S,12S,12aR,12bS)-12b-acetoxy-12-(benzoyloxy)-4,6,11-trihydroxy-4a,8,13,13-tetramethyl-5-oxo-2a,3,4,4a,5,6,9,10,11,12,12a,12b-dodecahydro-1H-7,11-methanocyclodeca[3,4]benzo[1,2-b]oxet-9-yl)oxy)-3-((tert-butoxycarbonyl)amino)-1-oxo-3-phenylpropan-2-yl(Z)-octadec-9-en-1-ylsuccinate], the “prodrug cleavage/degradation after 1 h in plasma” value (from here on “prodrug cleavage/degradation”) [1] is reported as “largely not degraded”, the “release of active drug (UPLC chromatogram) in mouse plasma” value ([1]; 24 h incubation) is reported as “active docetaxel (DTX) was observed” and the “prodrug dissociation rate from LNP” value [2] is reported as “dissociated at a faster rate from lipid nanoparticles than LD22-DTX”. The “prodrug dissociation rate from LNP” value ([2]; listed as LD18) was “dissociates from LNP faster than LD22”, the IC50 (OVCAR3 cells; Free drugs) was 0.0239 µM and the IC50 (OVCAR3 cells; PC-Chol LNP) was 0.0373 µM. For the same compound, the IC50 (OVCAR3 cells; PC-TO LNP) was 0.131 µM, the IC50 (OVCAR3 cells; ionizable LNP) was 0.064 µM and the “release of active drug (UPLC chromatogram) in purified esterase” value [3] was “active docetaxel (DTX) was observed”.
With `CCCCC/C=C\C/C=C\CCCCCCCCOCCCCSCC(=O)[C@@]1(O)[C@H](C)C[C@H]2[C@@H]3CCC4=CC(=O)C=C[C@]4(C)[C@@]3(F)[C@@H](O)C[C@@]21C` [LD07-DEX, (8S,9R,10S,11S,13S,14S,16R,17R)-9-fluoro-11,17-dihydroxy-10,13,16-trimethyl-17-(2-((4-(linoleyloxy)butyl)thio)acetyl)-6,7,8,9,10,11,12,13,14,15,16,17-dodecahydro-3H-cyclopenta[a]phenanthren-3-one] the “Particle size (PDI) PC-Chol LNP” value [4] was 56 (0.03) nm, the “Particle size (PDI) [ionizable LNP]” value [4] was “[47 (0.04)] nm” and the “% Entrapment PC-Chol LNP” value [5] was 90%. The “% Entrapment [ionizable LNP]” value [5] was “[88] %”, the “prodrug cleavage/degradation” value [1] was “no degradation” and the “plasma TNFα and KC/GRO levels versus control LNP-CpG” value [6] was “did not exhibit any immunosuppressive effects”. For the same compound, the “IL1β expression versus control LNP without prodrug” value [7] was “IL1β expression at a similar level to control”.
With `CCCCCCCC/C=C\CCCCCCCCOC(=O)CCC(=O)OCC(=O)[C@@]1(O)[C@H](C)C[C@H]2[C@@H]3CCC4=CC(=O)C=C[C@]4(C)[C@@]3(F)[C@@H](O)C[C@@]21C` [LD13-DEX, oleyl 2-((8S,9R,10S,11S,13S,14S,16R,17R)-9-fluoro-11,17-dihydroxy-10,13,16-trimethyl-3-oxo-6,7,8,9,10,11,12,13,14,15,16,17-dodecahydro-3H-cyclopenta[a]phenanthren-17-yl)-2-oxoethyl succinate] the “Particle size (PDI) PC-Chol LNP” value [4] was 61 (0.03) nm, the “Particle size (PDI) [ionizable LNP]” value [4] was “[49 (0.07)] nm” and the “% Entrapment PC-Chol LNP” value [5] was 100%. The “% Entrapment [ionizable LNP]” value [5] was “[96] %”, the “prodrug cleavage/degradation” value [1] was “partially degraded” and the “plasma cytokine (TNFα, IL-6 and IL-10) levels versus control LNP-CpG” value [6] was “able to suppress plasma cytokine”. The “IL1β expression versus control LNP without prodrug” value [7] was “able to reduce IL1β expression”.
For `CCCCCCCCCCCCCC(=O)OCC(COC(=O)CCC(=O)OCC(=O)[C@@]1(O)[C@H](C)C[C@H]2[C@@H]3CCC4=CC(=O)C=C[C@]4(C)[C@@]3(F)[C@@H](O)C[C@@]21C)OC(=O)CCCCCCCCCCCCC` (stereo partly drawn) [LD17-DEX, 2,3-dimyristroylpropyl (2-((8S,9R,10S,11S,13S,14S,16R,17R)-9-fluoro-11,17-dihydroxy-10,13,16-trimethyl-3-oxo-6,7,8,9,10,11,12,13,14,15,16,17-dodecahydro-3H-cyclopenta[a]phenanthren-17-yl)-2-oxoethyl) succinate], the “Particle size (PDI) [ionizable LNP]” value [4] was “[48 (0.06)] nm”, the “% Entrapment [ionizable LNP]” value [5] was “[89] %” and the “prodrug cleavage/degradation” value [1] was “not susceptible to degradation”. For the same compound, the “plasma cytokine (TNFα, IL-6 and IL-10) levels versus control LNP-CpG” value [6] was “able to suppress plasma cytokine” and the “IL1β expression versus control LNP without prodrug” value [7] was “able to reduce IL1β expression”.
For `CCCCCCCCCCCCCCCCOC(=O)CCC(=O)OCC(=O)[C@@]1(O)[C@H](C)C[C@H]2[C@@H]3CCC4=CC(=O)C=C[C@]4(C)[C@@]3(F)[C@@H](O)C[C@@]21C` [LD14-DEX, palmityl 2-((8S,9R,10S,11S,13S,14S,16R,17R)-9-fluoro-11,17-dihydroxy-10,13,16-trimethyl-3-oxo-6,7,8,9,10,11,12,13,14,15,16,17-dodecahydro-3H-cyclopenta[a]phenanthren-17-yl)-2-oxoethyl succinate], the “Particle size (PDI) PC-Chol LNP” value [4] was 67 (0.05) nm, the “Particle size (PDI) [ionizable LNP]” value [4] was “[47 (0.06)] nm” and the “% Entrapment PC-Chol LNP” value [5] was 100%. For the same compound, the “% Entrapment [ionizable LNP]” value [5] was “[95] %”, the “prodrug cleavage/degradation” value [1] was “partially degraded” and the “plasma cytokine (TNFα, IL-6 and IL-10) levels versus control LNP-CpG” value [6] was “able to suppress plasma cytokine”. For the same compound, the “IL1β expression versus control LNP without prodrug” value [7] was “able to reduce IL1β expression”.
